# Reference: patent US10039724B2, “7-hydroxy cannabidiol (7-OH-CBD) for use in the treatment of non-alcoholic fatty liver disease (NAFLD)” (GW Pharma Limited, priority 2014, dated 2018)
# Columns and labels:
# [1] = test system: HHL5 cells; assay: MTT cell viability assay in HHL5 cells; assay type: cell-based; details: HHL5 cells treated in parallel
# Description: (§1) HHL5 cells seeded in 96-well plates were grown to 90% confluence and then treated with 100 uM oleic acid (OA) or DMSO (−) for 24 hours in the absence or presence of cannabinoids at the indicated concentrations.
# (§2) MTT (3-[4,5-dimethyltiazol-2yl]-2,5 diphenyltetrazolium bromide) (5 mg/ml differentiation media) was added to cells treated as described above, and cells were incubated for additional 1 h at 37 C.
# (§3) Cells were then washed in PBS and dried before the addition of 100 ul of isopropanol to dissolve the formazan precipitate. The OD of each well was measured with a Genios-Pro plate reader (Tecan) equipped with a 620-nm filter.
# [2] = test system: 3T3-L1-derived mature adipocytes; assay: MTT cell viability assay in 3T3-L1-derived mature adipocytes; assay type: cell-based; details: mature 3T3-L1-derived adipocytes
# Description: (§4) 3T3-L1 cells were plated in 100 mm plates and differentiated as above to obtain mature adipocytes, at which point they were re-plated into 96-well plates and then treated with the indicated concentrations of cannabinoids for 2 days. Cells were then washed with PBS and stained with AdipoRed (Lonza) and read with a Genios Pro Plate reader (Tecan) according to the manufacturer's instructions.
# as §2, §3
# [3] = test system: HHL5 cells; assay: Intracellular triglyceride levels (AdipoRed) in oleic acid-treated HHL5 cells, in vitro model of fatty liver disease; assay type: cell-based; details: for intracellular lipid (triglyceride) levels, AdipoRed staining: HHL5 cells co-incubated with 100 uM oleic acid and compound for 24 hr
# Description: (§5) HHL-5 cells were cultured in standard growth media (DMEM [Lonza] supplemented with 10% FBS [Lonza], NEAA [Gibco] and Pen.Strep [Gibco]). 3T3-L1 cells were cultured in growth media (GM; DMEM [Lonza] low NaHCO3 (1.5 g/l), supplemented with 10% FBS [Lonza] and pen./strep. [Gibco]).
# as §1, §4
# HHL5 hepatocytes that have been treated with oleic acid to induce intracellular lipid accumulation are a useful in vitro model for fatty liver disease.
# [4] = test system: 3T3-L1-derived mature adipocytes; assay: Intracellular triglyceride levels (AdipoRed) in 3T3-L1-derived mature adipocytes; assay type: cell-based; details: for intracellular lipid stores, AdipoRed staining: mature 3T3-L1-derived adipocytes treated for 48 hours
# Description: as §5
# In order to induce adipogenesis cells were grown to 100% confluence and then switched to differentiation media (DMEM [Lonza] supplemented with a specific lot of 10% FBS [Lonza], 1 ug/ml Insulin (Sigma), 250 nM Dexamethasone (Sigma), 500 uM MIX (Sigma) and pen./strep. [Gibco]) for 2 days, followed by incubation in DMEM [Lonza] supplemented with a specific lot of 10% FBS [Lonza], 1 ug/ml Insulin (Sigma) and pen./strep. [Gibco] until day 7-10 at which point mature adipocytes are treated with cannabinoids at the indicated concentrations.
# as §4
# [5] = test system: HHL5 cells; details: Wargent et al., 2013; cited from earlier work
Structure (SMILES),"toxicity (cell viability, MTT assay) [1]",effect on cellular viability (MTT assay) [2],"intracellular lipid (triglyceride) levels, AdipoRed staining [3]","potency in lowering TG levels compared with parent compound CBD ([3]; HHL5 cells, 100 uM oleic acid, 24 hr)",efficacy in reducing Adipored staining compared with CBD ([4]; mature 3T3-L1-derived adipocytes),"intracellular lipid stores, AdipoRed staining [4]","toxicity (cell viability, MTT assay) ([1]; up to 20 uM)",triglyceride (TG) levels in HHL-5 cells treated with oleic acid [5]
"C=C(C)[C@@H]1CCC(CO)=C[C@H]1c1c(O)cc(CCCCC)cc1O [7-OH-CBD, 7-hydroxy-cannabidiol]",neither 11-OH-THCV or 7-OH-CBD were found to be toxic,not associated with any apparent effect on cellular viability,effective at lowering TG levels,even more potent that its parent compound CBD,more efficacious than CBD at reducing Adipored staining,dose-dependently decreased intracellular lipid stores,,
"C=C(C)[C@@H]1CCC(C)=C[C@H]1c1c(O)cc(CCCCC)cc1O [CBD, Cannabidiol]",,not associated with any apparent effect on cellular viability,dose-dependently lowered intracellular lipid levels,,,dose-dependently decreased intracellular lipid stores,no toxicity was found,
"CCCc1cc(O)c2c(c1)OC(C)(C)[C@@H]1CCC(CO)=C[C@@H]21 [11-OH-THCV, 11-hydroxy-tetrahydrocannabivarin]",neither 11-OH-THCV or 7-OH-CBD were found to be toxic,not associated with any apparent effect on cellular viability,devoid of lipid lowering activity,,,had no effect,,
"CCCc1cc(O)c2c(c1)OC(C)(C)[C@@H]1CCC(C)=C[C@@H]21 [THCV, Tetrahydrocannabivarin]",,not associated with any apparent effect on cellular viability,dose-dependently lowered intracellular lipid levels,,,dose-dependently decreased intracellular lipid stores,no toxicity was found,able to reduce triglyceride (TG) levels in a time dependent manner
